# Results from US8759049B2, “Method for the production of a fermentation product from a sugar hydrolysate” (Iogen Energy Corporation, priority 2010, dated 2014).
# How the values were obtained:
# Type in all cases: cell-based
# [1] = test system: bacteria that proliferated in the industrial fermentation (contaminated yeast cream); assay: Bacterial plate counts of contaminated yeast cream after acid and/or chlorine dioxide treatment (lab scale, Examples 1.1 and 1.2); conditions: for reduction of bacterial population: yeast cream first lowered to pH 2.0 with sulfuric acid, 5 minutes
# Description: A yeast cream (also referred to herein as a “yeast slurry”) separated from the fermentation broth and contaminated with bacteria that proliferated in the industrial fermentation was treated at 20° C. with acid alone, chlorine dioxide alone or a combination of the two. In the acid treated condition, the pH was lowered from 5.0 to 2.0 with sulfuric acid. In the chlorine dioxide treated condition, a concentrated stock of chlorine dioxide in water (10,000 ppm) was prepared by passing a mixture of chlorine and nitrogen gas through sodium chlorite columns. The resulting ClO2 gas was sparged into 4 L of cold de-ionized water until the desired concentration was reached. This chlorine dioxide solution was used to treat the yeast cream.
# In the combination treatment, the yeast cream was first lowered to pH 2.0 with sulfuric acid for 5 minutes and subsequently treated with the indicated bolus dose of chlorine dioxide for 5 minutes. In cases where the pH was lowered, the yeast cream was titrated back to 5.0 with sodium hydroxide after 10 minutes and prior to plating for bacterial enumeration. The duration of acid exposure was limited to 10 minutes to match the duration of exposure for the other treatments.
# Bacterial colonies were enumerated via standard plate count methods. In order to selectively plate bacterial colonies and inhibit yeast growth, tryptic soy agar plates (15 g/L pancreatic digest of casein, 5 g/L enzymatic digest of soybean meal, 5 g/L sodium chloride and 15 g/L agar) with 100 mg/L cycloheximide were used. Samples were serially diluted into sterile saline (0.9% NaCl w/v) prior to plating.
# Contaminated yeast cream obtained from the fermentation of Example 1.1 was titrated to pH 2.0 with sulfuric acid, treated with various concentrations of chlorine dioxide (0, 50, 100, 150 and 200 ppm) and plated to determine the bacterial reduction at pH 2.0 as outlined above, with the exception that the temperature of the treatment was 30° C. rather than 20° C. Bacterial populations were enumerated as previously described (Example 1.1). Bacterial populations were also enumerated on a control sample that was not subjected to chlorine dioxide or pH titration.
# [2] = test system: Saccharomyces cerevisiae yeast strain; assay: Yeast cell counts (viability) of yeast cream after acid and/or chlorine dioxide treatment
# Description: A sample of the yeast cream from Example 1.1 was plated for yeast growth after the treatments outlined therein. […] Selective yeast growth was enabled by serially diluting the cream in sterile saline (0.9% NaCl w/v) and plating on YM plates (10 g/L glucose, 5 g/L peptone, 3 g/L yeast extract, 3 g/L malt extract, 20 g/L agar) containing 34 mg/L chloramphenicol to inhibit bacterial growth.
# [3] = test system: contaminated yeast cream (Saccharomyces cerevisiae yeast strain with bacterial contaminants); assay: Yeast fermentation performance in lignocellulosic hydrolysate after treatment of contaminated yeast cream
# Description: Yeast fermentation performance was evaluated by inoculating the contaminated control yeast, acid-treated yeast and combination acid-chlorine dioxide treated yeast creams (treated as set forth in Example 1.1) into 400 mL of lignocellulosic hydrolysate. The lignocellulosic hydrolysate was produced as set forth in Example 1.1. Prior to inoculation, the media was sparged with pure CO2 for two minutes to ensure anaerobicity. Cells were allowed to ferment at 30° C., 150 rpm until sugar exhaustion. CO2 production was monitored for the course of the fermentation and samples were taken for dry cell weight and HPLC analysis.
# The samples were analyzed for cell mass using dry cell weight (Rice et al. (1980) Am. Soc. Brew. Chem. J. 38:142-45, which is incorporated herein by reference). For the fermentability analysis, samples were taken from the bioreactors using a 10 mL syringe. From each sample, cells in 2 mL culture samples were pelleted by centrifugation and the supernatant decanted and filtered through a 0.2 μm syringe filter. Each supernatant sample was diluted with 5 mM sulfuric acid. All dilutions were analyzed for glucose, xylose, xylitol, glycerol, and ethanol content on the Agilent 1100 Series Refractive Index Detector HPLC, while acetic and lactic acid were analyzed concurrently using an Agilent 1200 Series Variable Wavelength Detector HPLC. The column used for separation was the Varian Metacarb 87H Organic Acid column, maintained at 50° C. with a 5 mM sulfuric acid mobile phase at a flow rate of 0.6 mL/min. The unit was equipped with the 1100 Series Auto-sampler and Pumping System and controlled with the Chemstation software.
# [4] = test system: bacteria contaminating yeast cream; assay: Bacterial plate counts of yeast cream in industrial scale operation before and after treatment
# Description: A volume of 100,000 L whole fermentation broth was separated into a beer fraction and a yeast cream after completion of the fermentation. The yeast cream was concentrated to approximately 170 g dry cell weight/L. Prior to recycle into the next fermentation batch, the yeast cream contaminated with bacteria was treated at 20° C. with acid alone (batch 1) or treated with acid in combination with chlorine dioxide (batch 2). […] Chlorine dioxide was generated in concentrated form at a nominal concentration of 2700 ppm using a system commercially available from Pureline, Palatine, Ill. In the combination treatment, the acidity of the yeast cream was first lowered to pH 2.0 (as per Example 1.1) and subsequently treated at a bolus dose of 200 ppm chlorine dioxide with a residence time of approximately 45 seconds. After treatment, the yeast cream was fed back into the fermentation.
smiles,measurement,setting,value
[O][Cl+][O-] [chlorine dioxide],reduction of contamination in yeast cream,"[1]; 100 ppm chlorine dioxide, pH 2, 30° C.",10^2 CFU/mL
same,decrease of bacterial counts,"[1]; 200 ppm chlorine dioxide, pH 2, 30° C.",greater than 10^5 CFU/mL
same,reduction of bacterial population,"[1]; 200 ppm chlorine dioxide, 20° C.",10^2 CFU/mL
same,reduction of bacterial counts,"[1]; 500 ppm chlorine dioxide, room temperature, as restated in Example 1.2 (see FIG. 2)",100 fold
same,reduction of bacterial population,"[1]; 500 ppm chlorine dioxide, 20° C.",10^3 CFU/mL
same,effect of increasing chlorine dioxide dose on bacterial populations,"[1]; pH 5.0, 0, 200 and 500 ppm, 20° C., no acid",negligible effect
same,effect of increasing chlorine dioxide dose on fermentation yeast populations,"[2]; 0, 200, 500 ppm, regardless of the pH of the treatment (pH 5 or pH 2)",negligible effect
same,viability of the fermentation yeast culture,"[2]; combination of acid (pH 2) and chlorine dioxide 200 and 500 ppm, 20° C.",not affected
same,xylose consumption rate in lignocellulosic hydrolysate,"[3]; combination acid-chlorine dioxide treatment (pH 2, 200 and 500 ppm) versus untreated control, change greater than with acid alone",relative decrease
same,ethanol yield,"[3]; combination acid-chlorine dioxide treatment versus untreated control, change greater than with acid alone",increase
same,decrease of bacterial contamination counts,"[4]; pH 2.0 with sulfuric acid then 200 ppm chlorine dioxide, about 45 seconds, 20° C., industrial scale (batch 2)",10^4 CFU/mL
O=S(=O)(O)O [sulfuric acid],reduction of bacterial population by acid alone (pH control),"[1]; pH 2.0, no chlorine dioxide, 30° C.",did not reduce
same,reduction of bacterial population by lowering the pH alone,"[1]; pH 2.0 with sulfuric acid, 0 ppm chlorine dioxide, 20° C., 10 minutes",does not significantly reduce
same,viability of the fermentation yeast culture,"[2]; acid treatment alone, pH 2, 20° C.",not affected
same,ethanol yield,[3]; acid treatment alone (pH 2) versus untreated control,increase
same,xylose consumption rate in lignocellulosic hydrolysate,"[3]; acid treatment alone (pH 2) versus untreated control, equivalent cell concentrations, 30° C.",relative decrease
same,reduction of bacterial contamination counts,"[4]; sulfuric acid alone to pH 2.0, 20° C., industrial scale (batch 1)",10^2 CFU/mL
